We go through 2 compounds from patent publication US8598163B2, “Derivatives of [1,3]Oxazin-2-one useful for the treatment of metabolic diseases such as lipid disorders” (Vitae Pharmaceuticals, Inc., priority 2009, dated 2013).

In test [1] the target is T1, 11β-HSD1 (Homo sapiens (Human), UniProt P28845). The following applies: Biological Test 3, human liver microsomes, HTRF. For orientation: Liver microsomes are vesicles of endoplasmic reticulum, rich in cytochrome P450 enzymes.
Procedure: Briefly, compounds were incubated for 1 hour at 37° C. in Tris buffer (20 mM tris, 5 mM EDTA, pH 6.0) containing NADPH (200 μM) and cortisone (80 nM). Cortisol generated in the reaction is then detected with a competitive immunoassay, involving two HTRF conjugates: cortisol linked to XL665 and anti-cortisol antibody labeled with Europium cryptate. The incubation period for detection reaction was typically 2 hours. […] The ratio of the two emission signals was then calculated (Em665*10000/Em615). […] Each assay also contained a calibration curve with cortisol to transform the fluorescent data into cortisol concentrations. Percent inhibition of each compound was determined relative to the carbenoxolone signal.
In test [2] the target is T1, 11β-HSD1. The following applies: comparator compounds; IC50 in Biological Test Example 4 divided by IC50 in Biological Test Example 1.
Procedure: The assay began by dispensing 49 μl of microsome solution into 96-well polypropylene plates and adding 1 μl of the test compounds in DMSO, previously diluted in half-log increments (8 points) starting at 1.0 mM. […] The plates were incubated for 120 minutes at rt, and the reaction was quenched with the addition of 100 μl acetonitrile with 20 mM cortisone and 20 mM cortisol. After a ten minute incubation at rt, 100 μl of each well was filtered through a MultiScreen HTS, HV filter plate (Millipore) and diluted with 100 μl of reaction buffer without human plasma.

T1 sequence (P28845 whole entry): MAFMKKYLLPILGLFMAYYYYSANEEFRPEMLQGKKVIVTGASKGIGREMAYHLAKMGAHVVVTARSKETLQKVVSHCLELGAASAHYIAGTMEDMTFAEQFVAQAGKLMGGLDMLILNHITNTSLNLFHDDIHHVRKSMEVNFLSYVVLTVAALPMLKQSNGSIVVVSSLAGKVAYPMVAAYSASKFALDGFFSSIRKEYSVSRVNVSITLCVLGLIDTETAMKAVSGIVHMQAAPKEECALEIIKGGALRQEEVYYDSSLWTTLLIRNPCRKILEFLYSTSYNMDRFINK

In general, IC50 refers to the concentration at which inhibition is half-maximal. Higher therefore signals weaker potency in that assay. Regarding `Cc1nc2cc(-c3ccc([C@H](C)N4CC[C@](CC(C)(C)O)(c5ccccc5)OC4=O)cc3)ccn2n1` [Example 7, (S)-6-(2-Hydroxy-2-methyl-propyl)-3-{(5)-1-[4-(2-methyl-[1,2,4]triazolopyridin-7-yl)-phenyl]-ethyl}-6-phenyl-[1,3]oxazinan-2-one], on 11β-HSD1 [1], the IC50 was 31 nM. In addition, the Shift at 11β-HSD1 [2] worked out at 42.43.

On 11β-HSD1 [1], `COc1nc2ccc(-c3ccc([C@H](C)N4CC[C@](CC(C)(C)O)(c5ccccc5)OC4=O)cc3)cn2n1` [Example 9, (S)-6-(2-Hydroxy-2-methyl-propyl)-3-{(S)-1-[4-(2-methoxy-[1,2,4]triazolo[1,5-a]pyridin-6-yl)-phenyl]-ethyl}-6-phenyl-[1,3]oxazinan-2-one] gave an IC50 of 54 nM. Also, the Shift on 11β-HSD1 [2] was determined as 21.45.
